According to patent US4031244A, “Pharmaceutical compositions containing a 1-(2,6-dimethyl-phenoxy)-2-amino-alkane and method of use” (priority 1966, dated 1977):

Key:
[1] = tested on: warmblooded animals, such as rats and mice; test: Pharmacodynamic properties (anticonvulsive, antiarrhythmic, sedative side effects) in warm-blooded animals; type: in vivo; details: specific compounds
[2] = tested on: mouse; test: Anticonvulsive activity by the electroshock method of Tooman et al; type: in vivo; details: Mus musculus, read-out: Anticonvulsive ED50
From the text: (§1) The anticonvulsive activity of the compounds of the formula I and their non-toxic acid addition salts, as well as of certain isomers and homologs described in the prior art, was as certained by the electroshock method of Tooman et al, J. Neurophysiol.

[3] = in vivo; details: po, mouse
From the text: as §1

[4] = Anticonvulsive activity by the electroshock method of Tooman et al; type: in vivo, mouse; details: in vivo; mouse; LD50 / ED50; read-out: Therapeutic ratio LD50 ED50
From the text: as §1

## CCCC(N)COc1c(C)cccc1C (stereo not shown) [1-(2',6'-dimethyl-phenoxy)-2-amino-pentane]
[1]
  effectiveness as anticonvulsives: especially effective

## Cc1cccc(C)c1OCC(C)N (stereo not shown) [A, 1-(2',6'-dimethyl-phenoxy)-2-amino-propane]
[2]
  ED50: 23 mg/kg
[1]
  effectiveness as anticonvulsives: especially effective

## CNCCOc1c(C)cccc1C [B, n-methyl-2-(2',6'-xylyloxy)-ethylamine]
[3]
  LD50: 216 mg/kg
[2]
  ED50: 80 mg/kg
[4]
  selectivity ratio: 2.7

## Cc1cccc(C)c1OCCN [C, 2-(2',6'-xylyloxy)-ethylamine]
[3]
  LD50: 740 mg/kg
[2]
  ED50: 115 mg/kg
[4]
  selectivity ratio: 6.4

## Cc1cccc(C)c1OCCCN [D, 3-(2',6'-xylyloxy)-propylamine]
[3]
  LD50: 580 mg/kg
[2]
  ED50: 216 mg/kg
[4]
  selectivity ratio: 2.7

## Cc1cccc(C)c1OCC(C)N.Cl (stereo not shown) [Example 1, 1-(2',6'-dimethyl-phenoxy)-2-amino-propane hydrochloride]
[1]
  effectiveness as anticonvulsives: especially effective
